Experiments:
osteoclast gelatinase = assay: Inhibition of osteoclast gelatinase ([3H-methyl] gelatin degradation by culture media); assay type: biochemical, chicken
Procedure: Post-incubation media from cultured chicken osteoclasts were partially-purified, then incubated with [^3 H-methyl] gelatin for 4 hours at 37° C. in the presence of 1.2 mM APMA to activate any latent Pro-gelatinase. The incubations were carried out in the presence (or absence) of several different concentrations (0.001-1000 μM) of a bisphosphonate, Didronel (Etidronic Acid); where appropriate, CMT-1 was added at a final concentration of 50 μM. After the 4 hour incubation, the reaction was stopped by the addition of 45% Trichloroacetic acid and carrier gelatin, the mixture was centrifuged, and aliquots of the supernatant, containing the radiolabeled gelatin degradation fragments, were counted in a liquid scintillation spectrometer.

[1] = target: T1, Recombinant human MT1 -MMP (MMP-14) (Homo sapiens, UniProt P50281); assay: β-casein degradation by MT1-MMP; assay type: biochemical; conditions: single agent, 2 μM (suboptimal)
T1 construct: purchased In Vitro-Tek, Berlin, Germany
Procedure: Also, suboptimal inhibitory doses of CMT's and bisphosphonate, alone and in combination, were tested on pure human recombinant MT1 -MMP and MMP-9 activities using a β-casein-degradation assay.
Recombinant human ([…]) MT1 -MMP (also called MMP-14) (In Vitro-Tek, Berlin, Germany) was pretreated with buffer (none), 2 μM CMT-3 and 2 μM bisphosphonate clodronate (clodrinate) and combinations of 2 μM CMT-3 and 2 μM clodrinate for 1 h at 37° C. Subsequently, substrate β-casein (52 μM) was added to the incubation mixtures, and incubations continued for 60 min at 37° C.

LPS-injected rats [2] = assay: Tooth mobility in LPS-induced periodontitis rat model; assay type: in vivo; conditions: for effect on tooth mobility / effect on pathologic tooth mobility: Examples 1 and 2; for effect on pathologic tooth mobility: 2 mg; for reduction in tooth mobility: Example 3, day 7, vs untreated LPS-injected rats, CMT-8 1 mg/day oral, clodronate 1 mg/week s.c., single agents not statistically significant, combination p<0.05; for tooth mobility relative to the level in saline-injected control rats: Example 3, single agents at sub-optimal dose
Description: (§1) The activity of combinations of various tetracyclines and bisphosphonates was investigated in vivo. […] This procedure produces marked inflammation in the periodontal tissues and induces elevated levels of tissue-destructive matrix metalloproteinases (MMPs) and serine proteinases such as elastase in the gingiva leading to severe alveolar bone resorption and bone loss around the affected teeth, all within the 7-day experimental protocol. In brief, adult male rats with this experimentally-induced inflammatory disease were either left untreated, or treated with sub-optimal doses of (1) a CMT by itself; (II) a bisphosphonate by itself, or (III) a combination of (I) and (II). At the end of the experimental protocol, tooth mobility and alveolar bone loss, and levels of various tissue destructive MMP collagenases and gelatinases and serine enzymes in the gingiva, were measured.
(§2) For in vivo Examples, Thirty male Sprague-Dawley rates were distributed into 5 groups as follows:
Group 1: Normal. Saline injected+placebo therapy (CMC)
Group 2: LPS. LPS injected+placebo (CMC)
Group 3: CMT-8. LPS injected+CMT-8 (1 mg/day)
Group 4: Clodronate. LPS injected+Clodronate (1 mg/week)
Group 5: Combo. LPS+CMT-8 (1 mg/day)+Clodronate (1 mg/week)
(§3) The treatments were administered by oral gavage once per day (CMT-8) throughout the entire 7 day period, or by a single subcutaneous injection (clodrinate).
(§4) LPS (lipopolysaccharide)-induced periodontitis rat model: Twenty four hours before treatment, the rats were injected into the upper anterior gingivae and into the palatal papillae between 1st and 2nd upper molars with 10 μL of LPS (1 mg/ml) or saline solution, for a total of 10 μg LPS per site injected. The LPS injections were repeated every other day to complete the three injections.
(§5) On day 7, all rats were anesthetized, blood samples were collected by cardiac puncture and rats were sacrificed. Tooth mobility was checked and the gingival tissue was dissected and stored at -80° C. for subsequent enzyme analysis. The jaws were defleshed for bone loss determination.
(§6) The first experiment was designed to select sub-optimal doses of both CMT-8 (a chemically-modified, non-antibacterial tetracycline) and clodronate (a bisphosphonate) in the endotoxin-induced bone loss model. Groups of rats (n=5-6 rats/group) were anesthetized and injected directly into the gingival tissues with either saline (control group) or with LPS endotoxin every other day over a 7-day time period. Twenty-four hours after the first injection, groups of rats were administered by oral gavage either 0, 0.5mg, 1 mg, or 2mg CMT-8 daily for the next 6 days. At the end of the experiment, the rats were anesthetized, blood was drawn by intracardiac puncture, the rats were euthanized and the gingival tissues dissected for enzyme analysis. In addition, tooth mobility was scored and, after defleshing the jaws, alveolar bone loss around the teeth was scored morphometrically using a computer-assisted system.
(§7) In a third experiment, 30 adult male rats were distributed into the following experimental groups: saline-injected group; groups injected with endotoxin and then administered no drug, CMT-8 alone (1 mg/day), clodronate alone (1 mg/week), or a combination of the same sub-optimal doses of both drugs. The experiment was terminated on day 7. As described above, the gingival tissues were dissected, extracted and the partially-purified extracts analyzed for neutral proteinase (elastase and matrix metalloproteinase) activities, and both tooth mobility and alveolar bone loss were assessed.
In FIG. 1, tooth mobility is based on the following scoring system:
1=slight movement (vestibule-palatal)
2=medium movement (vestibule-palatal)
3=severe movement (vertical mobility in and out of socket)

LPS-injected rats [3] = assay: Alveolar bone loss in LPS-induced periodontitis rat model (morphometric analysis of defleshed jaws); assay type: in vivo; conditions: for effect on pathologic bone loss: 2 mg
Description: as §1, §2, §3, §4, §5, §6, §7

collagenase = assay: Gingival collagenase activity ([3H-methyl] collagen substrate, SDS-PAGE/fluorography) in extracts from treated LPS-injected rats; assay type: in vivo, rat; conditions: Example 3; total collagenase after 1.2 mM APMA activation; vs untreated LPS-injected rats; CMT-8 1 mg/day, clodronate 1 mg/week
Procedure: as §4, §5
In a third experiment, 30 adult male rats were distributed into the following experimental groups: saline-injected group; groups injected with endotoxin and then administered no drug, CMT-8 alone (1 mg/day), clodronate alone (1 mg/week), or a combination of the same sub-optimal doses of both drugs. The experiment was terminated on day 7. As described above, the gingival tissues were dissected, extracted and the partially-purified extracts analyzed for neutral proteinase (elastase and matrix metalloproteinase) activities, and both tooth mobility and alveolar bone loss were assessed. […]

[4] = 0.5 mg, CMT-8 daily oral gavage, clodronate single subcutaneous injection
[5] = 1 mg (selected sub-optimal dose)
[6] = CMT-8 daily oral gavage, clodronate single subcutaneous injection
[7] = 0.5 mg, CMT-8 daily oral gavage, clodronate single subcutaneous injection, Examples 1 and 2
[8] = 1 mg (selected sub-optimal dose), Examples 1 and 2
[9] = CMT-8 daily oral gavage, clodronate single subcutaneous injection, Examples 1 and 2
[10] = Example 3, day 7, CMT-8 1 mg/day oral, clodronate 1 mg/week s.c.

SMILES	inhibition of osteoclast gelatinase activity (osteoclast gelatinase; 50 μM CMT-1, 4 hours at 37° C., 1.2 mM APMA)	inhibition of β-casein degradation by MT1-MMP [1]	effect on tooth mobility (LPS-injected rats [2]; [4])	effect on tooth mobility (LPS-injected rats [2]; [5])	effect on pathologic tooth mobility (LPS-injected rats [2]; [6])	reduction in tooth mobility (LPS-injected rats [2])	tooth mobility relative to the level in saline-injected control rats (LPS-injected rats [2])	effect on alveolar bone loss (LPS-injected rats [3]; [7])	effect on alveolar bone loss (LPS-injected rats [3]; [8])	effect on pathologic bone loss (LPS-injected rats [3]; [9])	effect on alveolar bone loss (LPS-injected rats [3]; [10])	reduction of gingival collagenase activity (collagenase)	inhibition of osteoclast gelatinase activity (osteoclast gelatinase; Didronel at 0.001, 0.1, 10, and 1000 μM final concentrations)
CC1(O)c2cccc(O)c2C(=O)C2=C(O)C3(O)C(=O)C(C(N)=O)=C(O)CC3CC21 (stereo not drawn) [CMT-1, 4-de(dimethylamino)tetracycline]	about 79%	–	–	–	–	–	–	–	–	–	–	–	–
NC(=O)C1=C(O)C2(O)C(=O)C3=C(O)c4c(O)cccc4CC3CC2CC1=O (stereo not drawn) [CMT-3, 6-demethyl-6-deoxy-4-de(dimethylamino)tetracycline]	–	relative slight inhibition	–	–	–	–	–	–	–	–	–	–	–
CC1c2cccc(O)c2C(O)=C2C(=O)[C@]3(O)C(O)=C(C(N)=O)C(=O)C[C@@H]3[C@@H](O)[C@@H]21 (stereo partly drawn) [CMT-8, 6-deoxy-5α-hydroxy-4-de(dimethylamino)tetracycline]	–	–	no significant effects	either no, or barely detectable beneficial effects	essentially returned the pathologic tooth mobility and bone loss, induced by bacteria endotoxin, to control levels	18%	more than twice the level seen in the control rats	no significant effects	either no, or barely detectable beneficial effects	essentially returned the pathologic tooth mobility and bone loss, induced by bacteria endotoxin, to control levels	reduced alveolar bone loss only slightly, if at all	22-31%	–
CC(O)(P(=O)(O)O)P(=O)(O)O [Didronel, Etidronic Acid]	–	–	–	–	–	–	–	–	–	–	–	–	did not show any detectable inhibition
O=P(O)(O)C(Cl)(Cl)P(=O)(O)O [clodronate, dichloromethane diphosphonic acid]	–	relative slight inhibition	no significant effects	either no, or barely detectable beneficial effects	essentially returned the pathologic tooth mobility and bone loss, induced by bacteria endotoxin, to control levels	18%	more than twice the level seen in the control rats	no significant effects	either no, or barely detectable beneficial effects	essentially returned the pathologic tooth mobility and bone loss, induced by bacteria endotoxin, to control levels	reduced alveolar bone loss only slightly, if at all	22-31%	–

From patent US5998390A, “Combination of bisphosphonate and tetracycline” (The Research Foundation of State University of New York, priority 1998, dated 1999)
